From patent EP1038880B1, “Androstanes and pregnanes for allosteric modulation of GABA receptor” (priority 1994, dated 1995)

Key:
[1] = test system: metrazol induced convulsions; assay: animal or person; assay type: in vivo, mice; settings: Mus musculus; metrazol 85 mg/kg s.c., steroids i.p., mice
[2] = test system: N.I.H. Swiss-Webster mice; assay: Light/dark transition test; assay type: in vivo; settings: IP, 10 min test, vs control, Dunnett's t-test (Fig. 8)
Description: Male N.I.H. Swiss-Webster mice (Harlan, Harlan, Indianapolis, IN) weighing 15-20 g were housed four per cage in polyethylene cages with sawdust bedding. The colony room was environmentally controlled (22°C) with a hr light/dark cycle (0600-1800hr). Food and water were available ad libitum, except during testing. The experiments were run from 0700-1500 hr and groups were counterbalanced for time of day effects. Mice were only administered drug or vehicle once.
The apparatus included two 2-compartment automated test chambers (Model RXYZCM16, Omnitech Electronics, Columbus, OH). The open compartment was connected to the enclosed compartment via a 7.5 × 7.5 cm passageway. The open compartment was brightly lit using a 200 W incandescent light bulb. The experimental room was kept dark. Interruptions of the infrared beams in either chamber were automatically recorded by being linked to a computer through a Digiscan Analyzer (Omnitech and the data was analyzed using the Integrated Lab Animal Monitoring System (Omnitech Electronics). N.IH. Swiss-Webster mice were administered vehicle or test drug intraperiotoneally (IP),10 min later they were placed in the center of the lit compartment. The number of transitions between the lit and dark chambers, total activity in the lit chamber and the time spent in the lit chamber were measured during a 10 min test period.

[3] = test system: Sprague-Dawley rats; assay: Geller-Seifter conflict test; assay type: in vivo; settings: subcutaneous administration (Figure 10)
Text: This animal model of human anxiety utilizes a conditioned state of conflict in rats to ascertain the anxiolytic properties of drugs. […] The first includes bar pressing under a variable […] schedule without punishment. The second component is a fixed ratio schedule with each bar press resulting in a positive reinforcement and a punishment. The punished component produces a state of conflict within the animal. […] An anxiolytic response would increase the punished responding without affecting the unpunished responding.
Rats were housed individually under a 12-hour light-dark cycle with lights on from 0700-1900.
Rats were trained in test chambers (Coulbourn instruments) with a lever mounted in one wall, a small dipper that delivered the 0.1-mL milk reward (1 part Eagle condensed : milk 2 parts water), and a metal grid floor through which the foot-shock punishment was administered. A DEC PDP 11/73 minicomputer nmning SKED (State Systems) was used for programming and recording.
Rates initially learned to respond on a continuous reinforcement schedule and progressed rapidly to 30-sec, 1-min, and 2-min variable interval (VI) schedules. On the continuous reinforcement schedule, rats received milk reward following every lever press; on the VI schedules, milk rewards were available at infrequent and variable intervals, eventually at an average of once every 2 min. […] During conflict periods, which were signalled by the presentation of a light and a tone, the continuous reinforcement schedule was again in force and each lever press delivered both a milk reward and a brief ([…]) foot-shock Shock intensity was 0.2 mA initially, and.was increased daily in increments of 0.02 mA in order to gradually suppress lever pressing to 5 responses or less per conflict period. […] Drug-induced increases in the rate of punished responses were taken as an index of antianxiety activity, while decreases in the rate of unpunished responses were taken as an index of response depression or sedation.

[4] = target: T1, Hippocampal Mineralocorticoid Receptors (Rattus norvegicus, UniProt P22199); assay: Inhibition of 3H-aldosterone binding, brain cytosol; design: species or system rats; settings: competitor 10^-6M; 3 nM 3H-aldosterone, RU28362 0.5 µM
T1 construct: To isolate the mineralocorticoid receptor, brain cytosol fractions were prepared; from tissue; host or cells: rat brain (hippocampal) cytosol
T1 sequence (P22199 1-981): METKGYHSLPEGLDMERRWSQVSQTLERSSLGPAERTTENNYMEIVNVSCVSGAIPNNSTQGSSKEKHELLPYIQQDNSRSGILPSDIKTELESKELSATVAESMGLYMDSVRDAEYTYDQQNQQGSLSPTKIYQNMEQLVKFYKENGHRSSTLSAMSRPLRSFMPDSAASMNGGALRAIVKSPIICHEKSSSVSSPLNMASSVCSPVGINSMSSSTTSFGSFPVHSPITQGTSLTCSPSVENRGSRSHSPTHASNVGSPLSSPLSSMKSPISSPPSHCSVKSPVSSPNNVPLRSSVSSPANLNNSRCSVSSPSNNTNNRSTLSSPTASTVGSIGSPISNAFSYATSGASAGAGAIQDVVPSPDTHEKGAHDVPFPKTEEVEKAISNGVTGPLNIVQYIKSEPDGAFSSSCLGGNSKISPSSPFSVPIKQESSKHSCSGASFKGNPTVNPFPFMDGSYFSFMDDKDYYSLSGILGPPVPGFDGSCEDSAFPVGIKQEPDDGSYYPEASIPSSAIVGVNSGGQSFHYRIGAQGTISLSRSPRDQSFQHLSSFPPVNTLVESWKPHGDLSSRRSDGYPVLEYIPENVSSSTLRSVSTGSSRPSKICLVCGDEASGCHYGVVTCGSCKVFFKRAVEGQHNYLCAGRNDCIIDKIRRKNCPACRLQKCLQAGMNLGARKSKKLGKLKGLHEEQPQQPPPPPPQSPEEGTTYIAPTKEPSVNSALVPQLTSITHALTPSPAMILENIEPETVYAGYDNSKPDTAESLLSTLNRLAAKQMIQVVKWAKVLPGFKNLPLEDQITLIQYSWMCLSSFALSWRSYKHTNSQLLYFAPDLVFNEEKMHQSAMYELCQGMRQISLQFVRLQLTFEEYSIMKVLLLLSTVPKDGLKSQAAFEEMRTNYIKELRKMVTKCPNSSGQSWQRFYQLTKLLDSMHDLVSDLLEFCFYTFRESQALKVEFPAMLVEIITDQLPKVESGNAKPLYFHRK

[5] = Rotorod test (general CNS depression potential); settings: mouse, in vivo, ip
Description: The anticonvulsant tests are similar to that described above. […] The number of animals with tonic and/or clonic convulsions was recorded. In the maximal electroshock test, 50 mA of current at 60 Hz was delivered through corneal electrodes for 200 msec to induce tonic seizure. The ability of compounds to abolish the tonic component was defined as the endpoint. General CNS depression potential was determined by a rotorod test 10 minutes after the injection of compounds where the number of mice staying on a rotating (6 rpm) rod for 1 minute in one of the three trials was determined. […] Table 7. Anticonvulsant Activity of Exemplified Neuroactive Steroids and those of Selected Clinically Useful Anticonvulsants in Mice

Structure (SMILES): CC(=O)[C@H]1CC[C@H]2[C@@H]3CC[C@H]4C[C@H](O)CC[C@]4(C)[C@H]3CC[C@]12C [3α-Hydroxy-5α-pregnan-20-one, 3α-hydroxy-5α-pregnan-20-one]
- ED50 [1]: 4.9 mg/kg
- number of transitions between the dark box and the light box, in words [2]: significantly increased
- dose of peak effect on rate of punished responses [3]: 4.4 mg/kg

Structure (SMILES): C[C@]12CC[C@@H](O)C[C@@H]1CC[C@@H]1[C@@H]2CC[C@]2(C)[C@@H](C(=O)CO)CC[C@@H]12 [3α,21-dihydroxy-5α-pregnan-20-one]
- inhibition at 1 µM [4]: 76.7%
- ED50 [1]: 8.1 mg/kg
- ED50 at 10 min [5]: 22.9 mg/kg
